Test results taken from patent publication US12053465B2, “KCC2 expression enhancing compounds and uses thereof” (Whitehead Institute for Biomedical Research, priority 2017, dated 2024).

Experiments:
[1] = tested on: Mecp2 mutant mice; test: Locomotion (infrared beam break) in Mecp2 mutant mouse model of RTT; format: in vivo
Protocol: (§1) We assessed the in vivo efficacy of KEECs by treating RTT disease-related symptoms such as breathing pauses and reduced locomotion (58) in a Mecp2 mutant mouse model of RTT. […] Plethysmograph and locomotion measurements were made in 4-6 week-old male Mecp2 mutant animals as a pre-treatment control time point and were then injected daily with KEECs KW-2449 or Piperine. Injection of the solvent DMSO or ethanol (EtOH) served as vehicle controls (FIG. 15A). The same two behavioral measurements in vehicle or KEEC-injected Mecp2 mutant animals were performed again two weeks after the start of daily injections. Each animal's ‘after injection’ data were compared to the ‘before injection’ level to assess behavioral changes.
Male Mecp2 mutant mice (Mecp2^−/y, e.g. the Bird model) between 4-12 weeks of age were used for the in vivo experiments. Subjects were divided into drug treated KO (Piperine/KW-2449), and vehicle treated KO (EtOH/DMSO) groups. Animals were randomly assigned to treatment arms with approximately equivalent numbers in each group.
KW-2449 stock solution was prepared at 10 mg/ml with DMSO, and Piperine stock solution at 30 mg/ml with EtOH. 20 μl of stock solution were diluted with 1 ml saline for injection. Daily drug treatments or sham injections were performed on both groups between P28 and P56, for at least two weeks, as Mecp2 mutant mice start to show symptoms around P28 and die around P60. Both following tests were performed on both groups of mice before the injections start, and repeated at the end of the injection period. The animals' performance was then compared before and after drug/vehicle injections.
To measure the subjects' nighttime locomotion, a 1-D infrared light-beam frame (ActiMot, TSE-systems, MO) was used. Animals were single-housed in new cages with the same setup as their home cages. The infrared monitor was set up for each cage and the beam crossings was recorded between 17:00 and 9:00 the next morning, where the lights were turned off between 19:00 and 7:00. The average beam crossing frequency during the night (21:00-5:00) was used as the subject's activity score, and the average beam crossing frequency after lights on (7:00-9:00) was used as the subject's day time activity score. The time periods where the mouse is stationary for >5 minutes are discarded to reduce artifact caused by the mouse sleeping. As we look at both day-time and night-time locomotion, a bonferroni correction with repeated comparison number of 2 was applied. All behavioral analyses were performed by experimenters who were blind to the treatment condition.

[2] = tested on: immature mouse neurons; test: Gramicidin-perforated patch recording of EGABA in DIV6-7 immature mouse neurons; format: cell-based
[3] = tested on: Mecp2 mutant mice; test: Plethysmograph breathing measurement in Mecp2 mutant mouse model of RTT; format: in vivo; conditions: male Mecp2 mutant mice; daily injection, two weeks; vs DMSO- or EtOH-injected control
Protocol: as §1
Male Mecp2 mutant mice (Mecp2^−/y, e.g. the Bird model) between 4-12 weeks of age were used for the in vivo experiments. Subjects were divided into drug treated KO (Piperine/KW-2449), and vehicle treated KO (EtOH/DMSO) groups. Animals were randomly assigned to treatment arms with approximately equivalent numbers in each group. […]
A full body plethysmograph chamber (EMKA Inc, PA) was used to measure breathing patterns. […] For each test, the subject was left in the chamber for 20 minutes, afterwards its breath pattern was recorded for the next 20 minutes, and the estimated amplitude modulation index (eAMI) was calculated from the breath trace to label breath pauses automatically. […]

SMILES: O=C(c1ccc(/C=C/c2n[nH]c3ccccc23)cc1)N1CCNCC1 [KW-2449, (E)-(4-(2-(1H-indazol-3-yl)vinyl)phenyl)(piperazin-1-yl)methanone]
- night-time locomotion (infrared beam break frequency in home cage) ([1]; Mecp2 mutant animals, vs DMSO control): significantly increased night-time locomotion
- locomotive activities ([1]; male Mecp2 mutant mice, daily injection, two weeks, vs DMSO- or EtOH-injected control): remarkable increase in locomotive activities
- EGABA after treatment ([2]; DIV6-7 immature mouse neurons, untreated about −50 mV): about −70 mV
- significant hyperpolarizing shift in EGABA ([2]; DIV6 cultured immature mouse neurons): induces significant hyperpolarizing shift in EGABA
- frequency of breathing pauses [3]: significantly reduced the frequency of breathing pauses
